# Active and inactive are the calls of the source.
# Assays:
# [1] = Shn3 3'UTR reporter inhibitors, dose response, cell-based, Clone20 osteoblasts, firefly luciferase, cherry-picked (AID 624132); type: functional;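 note: firefly luciferase luminescence from reporter carrying the Shn3 3'UTR in osteoblasts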
# [2] = HepG2 cell cytotoxicity, dose response, cytotoxicity control for Shn3 inhibitor project, CellTiter-Glo, cherry-picked (AID 624134); type: functional, cell-based
# [3] = control 3'UTR Renilla luciferase suppression, dose response, counter-screen for Shn3 inhibitor project, cell-based, Clone20-Shn3RL, cherry-picked (AID 624133); type: functional
# HEK293 = experiment: inhibitors of LMP1-driven NF-kB reporter, dose response, cell-based, HEK293, luciferase, cherry-pick (AID 588343); type: functional; settings: Homo sapiens
# [4] = Luminescence Cell-Based Dose Response HTS to Identify Inhibitors of 5'UTR Stem-Loop Driven Prion Protein mRNA Translation in H4 Neuroglioblastoma Cells. [Related pubchem assays: 1827 (Project Summary), 1813 (Primary HTS)]; type: functional
# [5] = inhibitors of SNCA 5'UTR-driven reporter translation, confirmation, H4 neuroglioma cells, luminescence (AID 1988); type: functional, cell-based
# [6] = inhibitors of firefly luciferase expression or activity, dose response, H4 neuroglioma cells, luminescence (AID 1990); type: functional, cell-based
# [7] = target: T1, Type-1 angiotensin II receptor (Homo sapiens, UniProt P30556); experiment: AT1 receptor antagonists, dose response, selectivity assay for APJ receptor antagonist project, cell-based, uHTS hits (AID 463214); type: functional;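 note: antagonist potency against angiotensin II stimulated AT1 response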
# T1 sequence (P30556 whole entry): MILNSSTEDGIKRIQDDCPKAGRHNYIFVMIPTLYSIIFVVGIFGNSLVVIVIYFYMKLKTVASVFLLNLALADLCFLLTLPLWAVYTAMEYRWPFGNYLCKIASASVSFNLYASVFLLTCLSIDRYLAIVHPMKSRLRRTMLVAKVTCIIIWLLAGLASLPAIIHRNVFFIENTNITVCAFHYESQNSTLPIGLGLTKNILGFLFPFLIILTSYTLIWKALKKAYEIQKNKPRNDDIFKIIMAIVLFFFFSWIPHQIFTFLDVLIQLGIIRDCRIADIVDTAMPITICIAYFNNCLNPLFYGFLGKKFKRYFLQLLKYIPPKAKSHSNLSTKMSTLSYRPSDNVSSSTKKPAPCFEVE
# Beta-galactosidase = Beta-galactosidase (Escherichia coli, UniProt Q8VNN2); experiment: PubChem AID 485352; type: functional
# [8] = target: Induced myeloid leukemia cell differentiation protein Mcl-1 (Homo sapiens, UniProt Q07820); type: functional
# Vero = experiment: cells; type: functional; settings: Chlorocebus sabaeus
# Paired box protein Pax-8 = Paired box protein Pax-8 (Homo sapiens, UniProt Q06710); experiment: inhibitors of PAX8-driven TPO luciferase reporter, dose response, RMG-I cells, cherry-pick (AID 687027); type: functional, cell-based;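 note: luciferase reporter driven by Pax8 target thyroperoxidase promoter measured by SteadyGlo luminescence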
# [9] = ZM109 Env clade C HIV-1 fusion inhibitors, dose response, HeLa effector, CEM target cells, luciferase, cherry-pick (AID 652058); type: functional, cell-based
# [10] = inhibitors of HIV Env-driven cell fusion, dose response, cherry-pick (AID 652057); type: functional, cell-based
# [11] = inhibitors of clade B AD8 Env fusion, dose response, cell-based, cherry-pick (AID 652062); type: functional;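 note: luciferase signal from cell-cell fusion driven by HIV-1 clade B AD8 Env; potency is for inhibitors of fusion seen as a drop in luminescence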
# [12] = off-target signal loss in HeLa-CEM21 co-culture – HeLa F-luc CTL cells, cherry-picked, counter-screen for HIV-1 Env fusion inhibitor project, dose response (AID 652040); type: functional, cell-based;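 note: potency for signal decrease marking cytotoxic or nonspecific inhibition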
# [13] = target: T2, Polyadenylate-binding protein 1 (Homo sapiens, UniProt P11940); experiment: PABP1 MLLE–PAM2 binding inhibitor potency, dose response, biochemical, fluorescence polarization, FITC-PAM2 peptide (AID 602259); type: functional; settings: read-out: IC50_Mean
# [14] = target: T2, Polyadenylate-binding protein 1; experiment: PABP1 MLLE–PAM2 interaction inhibitors, dose response, miRNA deadenylation inhibitor project, biochemical, fluorescence polarization, Cy5-PAM2 peptide, secondary (AID 602260); type: functional; settings: read-out: IC50_Mean
# [15] = target: T3, Replicative DNA helicase DnaB (Mycobacterium tuberculosis, UniProt P9WMR3); experiment: DnaB intein splicing inhibitors, dose response, biochemical, cell-free fluorescence (AID 449749); type: functional
# T3 sequence (P9WMR3 whole entry): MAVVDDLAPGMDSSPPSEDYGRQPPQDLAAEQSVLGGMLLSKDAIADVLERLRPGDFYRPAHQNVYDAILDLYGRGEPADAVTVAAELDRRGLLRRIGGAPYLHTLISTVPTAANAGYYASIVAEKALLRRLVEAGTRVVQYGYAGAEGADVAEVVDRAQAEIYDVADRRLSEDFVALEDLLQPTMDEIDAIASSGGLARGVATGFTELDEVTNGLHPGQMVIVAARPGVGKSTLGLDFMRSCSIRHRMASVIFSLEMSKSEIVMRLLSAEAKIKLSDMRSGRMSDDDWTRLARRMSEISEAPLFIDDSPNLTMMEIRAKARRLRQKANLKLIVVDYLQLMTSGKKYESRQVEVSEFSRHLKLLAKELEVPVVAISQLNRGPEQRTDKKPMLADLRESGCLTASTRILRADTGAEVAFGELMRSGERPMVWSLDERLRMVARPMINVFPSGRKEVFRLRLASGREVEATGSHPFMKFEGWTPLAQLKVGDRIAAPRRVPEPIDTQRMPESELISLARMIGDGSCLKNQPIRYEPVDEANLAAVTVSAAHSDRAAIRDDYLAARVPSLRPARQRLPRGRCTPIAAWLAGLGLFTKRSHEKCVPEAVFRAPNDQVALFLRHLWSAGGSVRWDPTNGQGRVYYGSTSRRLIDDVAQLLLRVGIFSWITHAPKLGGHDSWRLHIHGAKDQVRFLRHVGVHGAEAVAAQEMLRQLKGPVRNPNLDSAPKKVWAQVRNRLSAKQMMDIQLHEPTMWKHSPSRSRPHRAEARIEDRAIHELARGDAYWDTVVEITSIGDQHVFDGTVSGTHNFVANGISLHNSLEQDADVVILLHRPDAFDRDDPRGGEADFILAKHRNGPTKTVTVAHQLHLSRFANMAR
# Protein RecA = target: T4, Protein RecA (Mycobacterium tuberculosis, UniProt P9WHJ3); experiment: Fluorescence Cell-Free Homogeneous Dose Retest to Identify Inhibitors of RecA-Intein Splicing Activity. [Related pubchem assays (depositor defined):AID2097, AID2223, AID489010, AID492950]; type: functional
# T4 sequence (P9WHJ3 whole entry): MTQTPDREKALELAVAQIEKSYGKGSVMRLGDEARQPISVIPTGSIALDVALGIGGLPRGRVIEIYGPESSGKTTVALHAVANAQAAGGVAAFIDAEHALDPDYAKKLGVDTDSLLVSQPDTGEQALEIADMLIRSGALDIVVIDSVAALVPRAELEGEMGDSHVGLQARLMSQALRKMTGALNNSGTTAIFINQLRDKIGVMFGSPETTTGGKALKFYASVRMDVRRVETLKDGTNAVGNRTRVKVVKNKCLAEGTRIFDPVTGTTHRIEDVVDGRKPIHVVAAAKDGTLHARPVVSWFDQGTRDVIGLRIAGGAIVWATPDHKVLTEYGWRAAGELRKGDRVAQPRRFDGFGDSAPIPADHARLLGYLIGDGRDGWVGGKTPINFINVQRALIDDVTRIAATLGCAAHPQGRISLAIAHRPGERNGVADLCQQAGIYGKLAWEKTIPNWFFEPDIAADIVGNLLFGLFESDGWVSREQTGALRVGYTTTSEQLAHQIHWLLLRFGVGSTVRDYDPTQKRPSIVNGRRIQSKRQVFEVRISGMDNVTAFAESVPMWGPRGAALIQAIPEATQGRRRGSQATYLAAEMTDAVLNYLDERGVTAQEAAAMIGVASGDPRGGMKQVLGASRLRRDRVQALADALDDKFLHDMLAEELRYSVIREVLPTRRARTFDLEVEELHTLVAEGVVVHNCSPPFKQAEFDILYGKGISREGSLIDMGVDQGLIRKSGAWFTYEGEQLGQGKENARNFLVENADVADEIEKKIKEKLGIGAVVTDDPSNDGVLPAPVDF
# Beta-galactosidase, sequence (Q8VNN2 whole entry): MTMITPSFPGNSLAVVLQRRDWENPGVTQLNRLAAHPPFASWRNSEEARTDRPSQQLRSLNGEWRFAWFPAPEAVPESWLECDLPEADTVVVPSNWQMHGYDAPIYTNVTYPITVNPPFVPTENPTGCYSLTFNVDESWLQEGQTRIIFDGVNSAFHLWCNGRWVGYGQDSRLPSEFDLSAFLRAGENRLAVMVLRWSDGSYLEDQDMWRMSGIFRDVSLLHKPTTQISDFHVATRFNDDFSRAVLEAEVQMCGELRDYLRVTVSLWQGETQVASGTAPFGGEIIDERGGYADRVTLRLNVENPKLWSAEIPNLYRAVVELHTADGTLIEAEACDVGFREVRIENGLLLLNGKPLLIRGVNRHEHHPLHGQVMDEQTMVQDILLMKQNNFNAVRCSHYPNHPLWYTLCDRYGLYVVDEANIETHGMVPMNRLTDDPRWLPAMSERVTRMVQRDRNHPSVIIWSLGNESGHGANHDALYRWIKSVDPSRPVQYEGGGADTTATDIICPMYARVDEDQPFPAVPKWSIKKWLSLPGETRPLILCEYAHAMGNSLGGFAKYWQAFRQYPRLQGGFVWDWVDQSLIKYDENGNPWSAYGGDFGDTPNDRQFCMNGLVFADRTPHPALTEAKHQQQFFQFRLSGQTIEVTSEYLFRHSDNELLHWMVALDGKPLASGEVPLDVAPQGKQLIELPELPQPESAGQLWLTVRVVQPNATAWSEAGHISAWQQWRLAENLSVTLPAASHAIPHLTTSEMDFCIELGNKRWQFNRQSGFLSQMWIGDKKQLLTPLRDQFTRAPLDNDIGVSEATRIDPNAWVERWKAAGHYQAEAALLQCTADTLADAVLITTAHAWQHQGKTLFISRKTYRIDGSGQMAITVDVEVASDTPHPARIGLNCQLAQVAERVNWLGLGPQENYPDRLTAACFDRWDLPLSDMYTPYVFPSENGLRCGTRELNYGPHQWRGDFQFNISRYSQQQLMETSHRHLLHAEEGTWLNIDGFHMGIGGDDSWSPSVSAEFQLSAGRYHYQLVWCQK
# Paired box protein Pax-8, sequence (Q06710 whole entry, the tested form may be a part): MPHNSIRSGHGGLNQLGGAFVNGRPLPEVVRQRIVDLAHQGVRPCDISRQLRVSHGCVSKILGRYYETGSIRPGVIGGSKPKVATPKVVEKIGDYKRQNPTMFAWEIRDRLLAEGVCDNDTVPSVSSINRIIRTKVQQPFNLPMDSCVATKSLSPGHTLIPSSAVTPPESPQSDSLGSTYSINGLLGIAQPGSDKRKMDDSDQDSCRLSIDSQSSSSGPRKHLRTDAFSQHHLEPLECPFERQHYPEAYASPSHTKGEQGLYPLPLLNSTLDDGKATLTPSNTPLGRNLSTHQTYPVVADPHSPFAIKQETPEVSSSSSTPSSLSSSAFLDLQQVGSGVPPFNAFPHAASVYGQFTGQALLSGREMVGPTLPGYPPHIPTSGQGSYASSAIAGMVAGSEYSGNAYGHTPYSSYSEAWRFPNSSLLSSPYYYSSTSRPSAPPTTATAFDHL
# Induced myeloid leukemia cell differentiation protein Mcl-1, sequence (Q07820 whole entry): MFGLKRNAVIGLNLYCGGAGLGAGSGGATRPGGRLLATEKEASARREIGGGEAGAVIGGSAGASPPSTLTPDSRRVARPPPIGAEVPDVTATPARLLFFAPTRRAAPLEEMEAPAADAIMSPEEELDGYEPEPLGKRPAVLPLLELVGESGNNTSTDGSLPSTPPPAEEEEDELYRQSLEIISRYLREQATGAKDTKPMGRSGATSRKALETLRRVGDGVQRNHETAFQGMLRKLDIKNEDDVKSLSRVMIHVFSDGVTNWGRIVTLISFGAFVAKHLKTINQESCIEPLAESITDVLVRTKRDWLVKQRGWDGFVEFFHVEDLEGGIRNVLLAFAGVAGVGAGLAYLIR
# T2 sequence (P11940 whole entry): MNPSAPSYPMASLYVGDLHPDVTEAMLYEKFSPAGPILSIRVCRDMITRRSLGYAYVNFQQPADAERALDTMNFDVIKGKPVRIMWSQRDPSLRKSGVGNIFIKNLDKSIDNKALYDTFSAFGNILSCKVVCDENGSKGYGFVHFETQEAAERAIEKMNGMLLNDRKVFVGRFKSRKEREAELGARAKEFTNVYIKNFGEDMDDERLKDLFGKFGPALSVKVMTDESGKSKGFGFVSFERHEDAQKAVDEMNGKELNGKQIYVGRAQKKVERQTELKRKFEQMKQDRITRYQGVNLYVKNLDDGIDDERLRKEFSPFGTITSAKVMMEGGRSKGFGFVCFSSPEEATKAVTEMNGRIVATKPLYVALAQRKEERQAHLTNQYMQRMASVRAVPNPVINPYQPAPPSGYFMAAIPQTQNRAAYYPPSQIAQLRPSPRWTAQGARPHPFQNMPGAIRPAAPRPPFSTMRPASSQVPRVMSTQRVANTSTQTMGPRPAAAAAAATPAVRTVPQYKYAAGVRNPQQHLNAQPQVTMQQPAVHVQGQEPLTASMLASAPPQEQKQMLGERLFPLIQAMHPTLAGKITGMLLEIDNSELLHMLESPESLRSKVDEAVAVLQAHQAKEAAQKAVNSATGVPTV
structure (smiles),measurement,setting,value
OC1(c2cccc(C(F)(F)F)c2)CCN(c2[nH]cnc3c4cc(F)ccc4nc2-3)CC1,AC50,[1],1.87 µM (active)
same,AC50,[2],46 µM (active)
same,AC50,[3],6.11 µM (active)
same,AC50,HEK293,7.02 µM (active)
NNc1nc(-c2ccccc2)cc(-c2ccccc2)n1,EC50,[4],> 120 µM (not active)
same,EC50,[5],> 120 µM (not active)
same,EC50,[6],> 120 µM (not active)
same,IC50,[7],13 µM (active)
same,EC50,Beta-galactosidase,> 40 µM (inactive)
Cc1ccc(/C=C/C(=O)NCc2ccccn2)o1,IC50,[8],6.32 µM (active)
COc1cccc(/C=C2\SC(=S)N(CCC(=O)NCCc3ccc(O)cc3)C2=O)c1,CC50,Vero,16.1 µM (active)
same,AC50,Paired box protein Pax-8,4.57 µM (active)
O=C(Nc1cc(Cl)cc(Cl)c1)C1CCC(=O)N1Cc1ccccc1Cl (stereo not drawn),AC50,[9],19.3 µM (active)
same,AC50,[10],7.12 µM (active)
same,AC50,[11],8.36 µM (active)
same,AC50,[12],59.2 µM (active)
NNC(=O)c1cccc(COc2ccc3c(c2)CCC3)c1,AC50,HEK293,2.12 µM (active)
COc1cc(/C=C2\SC(=S)N(CC(=O)Nc3ccc(O)cc3)C2=O)cc(OC)c1OC,IC50,[8],3.74 µM (active)
CCn1c(COc2ccc(Cl)cc2)nnc1SCc1nc2ccccc2[nH]1,AC50,[9],12 µM (active)
same,AC50,[10],6.83 µM (active)
same,AC50,[11],5.17 µM (active)
same,AC50,[12],23.5 µM (active)
COc1ccc(NS(=O)(=O)c2ccc(N3CCCC3)c(NC(S)=Nc3ccc(SC(F)F)cc3)c2)cc1,IC50,[13],> 66 µM (inactive)
same,IC50,[14],> 66 µM (inactive)
same,AC50,Paired box protein Pax-8,16.4 µM (active)
CC1CCN(c2ccc(-c3ccc(NC(=O)C(F)(F)F)cc3)nn2)CC1,AC50,HEK293,2.7 µM (active)
O=C(c1ccc2c(c1)OCO2)N(CC1CCCO1)C1(C(=O)NC2CCCCC2)CCCCC1 (stereo not drawn),AC50,[9],4.79 µM (active)
same,AC50,[10],5.73 µM (active)
same,AC50,[11],13 µM (active)
same,AC50,[12],9.67 µM (active)
CCN(C[C@H]1N[C@@](C)(C(=O)OC)[C@H]2C(=O)N(Cc3ccccc3)C(=O)[C@@H]12)S(=O)(=O)c1ccc(C(C)(C)C)cc1,AC50,[9],5.16 µM (active)
same,AC50,[10],5.72 µM (active)
same,AC50,[11],6.14 µM (active)
same,AC50,[12],6.31 µM (active)
CCc1nc2ccc(C(=O)N3CCN(C(=O)c4ccco4)CC3)cn2c1N(C)Cc1ccc(OC)cc1,AC50,[9],7.5 µM (active)
same,AC50,[10],2.72 µM (active)
same,AC50,[11],13.5 µM (active)
same,AC50,[12],10.4 µM (active)
Cc1csc(N=Nc2ccc(N(C)C)cc2)[n+]1[O-],AC50,HEK293,2.84 µM (active)
Cc1cccc(NC(=S)N/N=C2/CCCCc3ccccc32)c1,AC50,[15],34 µM (active)
same,EC50,Protein RecA,> 380 µM (inactive)
same,IC50,[7],> 40 µM (not active)
same,EC50,Beta-galactosidase,> 40 µM (inactive)

# — ChEMBL document CHEMBL1201862, “PubChem BioAssay data set” (2004)
